Laboratory results: US20040235080A1, “Methods and reagents for detecting endotoxin” (priority 2001, published 2004)

Legend:
[1] = biological target: T1, recombinant Factor C (rFC) (Carcinoscorpius rotundicauda, UniProt Q26422); test: recombinant Factor C (rFC) assay with different detergents and detergent concentrations; type: biochemical; conditions: for Detergent concentration range for rFC inhibition / Detergent concentration range for rFC enhancing: 1 EU/ml EC-6 endotoxin, DPR-coumarin substrate, data after 30 minutes
T1 construct: made in house; host or cells: Culture supernatant, lot 031901I
T1 sequence (Q26422 26-1019): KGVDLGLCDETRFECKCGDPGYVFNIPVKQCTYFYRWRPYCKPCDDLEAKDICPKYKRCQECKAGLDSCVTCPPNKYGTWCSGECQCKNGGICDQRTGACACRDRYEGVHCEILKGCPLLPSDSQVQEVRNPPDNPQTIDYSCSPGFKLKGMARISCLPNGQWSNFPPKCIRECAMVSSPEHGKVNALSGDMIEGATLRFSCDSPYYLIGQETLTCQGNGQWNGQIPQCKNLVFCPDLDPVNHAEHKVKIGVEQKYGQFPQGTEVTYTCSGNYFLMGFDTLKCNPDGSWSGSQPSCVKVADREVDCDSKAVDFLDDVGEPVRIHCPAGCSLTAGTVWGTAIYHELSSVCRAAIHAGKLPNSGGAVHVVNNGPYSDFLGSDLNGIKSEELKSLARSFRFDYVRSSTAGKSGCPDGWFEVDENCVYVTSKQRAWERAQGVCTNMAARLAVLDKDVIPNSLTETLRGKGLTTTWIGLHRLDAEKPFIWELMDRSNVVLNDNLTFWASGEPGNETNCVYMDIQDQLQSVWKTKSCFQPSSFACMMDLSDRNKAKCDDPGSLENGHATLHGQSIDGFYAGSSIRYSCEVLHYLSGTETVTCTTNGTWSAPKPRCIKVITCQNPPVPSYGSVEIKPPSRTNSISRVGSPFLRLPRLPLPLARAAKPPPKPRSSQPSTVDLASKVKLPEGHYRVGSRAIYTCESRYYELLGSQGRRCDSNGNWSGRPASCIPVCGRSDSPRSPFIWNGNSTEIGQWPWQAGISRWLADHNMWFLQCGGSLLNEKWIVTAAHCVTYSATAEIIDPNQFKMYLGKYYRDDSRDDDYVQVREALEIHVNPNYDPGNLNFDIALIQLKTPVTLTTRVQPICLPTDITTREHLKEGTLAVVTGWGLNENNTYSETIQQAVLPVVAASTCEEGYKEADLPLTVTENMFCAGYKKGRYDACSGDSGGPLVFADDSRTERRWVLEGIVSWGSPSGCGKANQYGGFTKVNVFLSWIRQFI
Description: The recombinant Factor C (rFC) assay was carried out using 20 μl of each detergent (˜10× of final concentration), 150 μl of 1 EU/ml EC-6, 10 μl of rFC supernatant 031901I, 20 μl of 300 mM Tris, pH 8.0, and 20 μl of 0.55 mM DPR-coumarin substrate. The results of the assay were read at 38° C. using a Cytofluor reader set at 390/440 nm, 5 minutes per cycle, for 1 hour. The data were graphed after 30 minutes.

[2] = biological target: T2, recombinant Carcinoscorpius rotundicauda Factor C (Carcinoscorpius rotundicauda, UniProt Q26422); test: endotoxin assay of Examples 1 and 13 (two-step and one-step); type: biochemical; conditions: assay exemplified in Examples 1 and 13
T2 construct: made in house; host or cells: Sf9 insect cells, baculovirus (pFASTBAC1 / bacmid); the secreted protein is used as culture supernatant
T2 sequence (Q26422 26-1019): T1 sequence (Q26422 26-1019)
Description: Endotoxin was pre-incubated with culture medium containing recombinant Carcinoscorpius rotundicauda Factor C obtained from recombinant Factor C-producing Sf9 cells for 1 hour in assay buffer (30 mM Tris, pH 8.0, 30 mM NaCl, 0.3% lactose, and 0.0025% Zwittergent 3-14). The substrate N-t-Boc-Asp(Obzl)-Pro-Arg-7-Amido-4-methyl coumarin (DPR-coumarin) was added to the mixture to a final concentration of […]. The fluorescence generated from the cleavage of the substrate by activated Factor C was measured after 15-20 minutes. Results of a similar assay carried out using the substrate N-t-Boc-Val-Pro-Arg-7-Amido-4-methyl coumarin at a final concentration of 100 mM are shown in FIG. 5.
A one-step endotoxin assay can be carried out in a 96-well plate, using 100 μl each of blank and endotoxin standards. […] The plate is incubated at 37° C. for 1 hour. Excitation and emission are read at 390 and 440 nm, respectively, in a fluorescence microplate reader.

Compound	width of the enhancing concentration range [1]	Detergent concentration range for rFC inhibition [1]	optimal concentration of the surfactant [2]	Detergent concentration range for rFC enhancing [1]
CCCCCCCCS[C@@H]1O[C@H](CO)[C@@H](O)[C@H](O)[C@H]1O [OTG, n-Octyl-beta-D-thioglycopyranoside]	narrow	>=0.5%		
CCCCCCCCCCCCOS(=O)(=O)[O-].[Na+] [SDS, sodium dodecyl sulfate]		>=0.0004%		
Triton X-100	narrow	>=0.008%		
CCCCCCCCCCCCCC[N+](C)(C)CCCS(=O)(=O)[O-] [Zwittergent 3-14, N-tetradecyl-N,N-dimethyl-3-ammonio-1-propanesulfonate]	narrow	>=0.004%	0.0025%	
CCCCCCCC/C=C\CCCCCCCC(=O)OCCOCC(OCCO)C1OCC(OCCO)C1OCCO (centres unmarked) [Tween 80, polyoxyethylene (20) sorbitan monooleate]	wide	>0.25%		0.001-0.25%
CCCCCCCCCCCC(=O)OCCOCCOCCOCCOCCOCCOCCOCCOCCOCCOCCOCCOCCOCCOCCOCCOCCOCCOCCOCCOCC(OCCOCCOCCOCCOCCOCCOCCOCCOCCOCCOCCOCCOCCOCCOCCOCCOCCOCCOCCOCCO)C1OCC(OCCOCCOCCOCCOCCOCCOCCOCCOCCOCCOCCOCCOCCOCCOCCOCCOCCOCCOCCOCCO)C1OCCOCCOCCOCCOCCOCCOCCOCCOCCOCCOCCOCCOCCOCCOCCOCCOCCOCCOCCOCCO (centres unmarked) [Tween 20, polyoxyethylene (20) sorbitan monolaurate]	wide	>0.5%		0.001-0.5%
